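Compound exposure: 48 hours, 5 concentrations, 96-well plates. At the GI50, growth is halved. At the TGI there is no net growth.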
Key:
Test in all cases: inhibition of tumour cell growth, NCI panel, 48 h
SN12C renal = system: SN12C renal
DU-145 prostate = system: DU-145 prostate
SK-MEL-5 melanoma = system: SK-MEL-5 melanoma
PC-3 prostate = system: PC-3 prostate
U251 CNS = system: U251 CNS
NCI-H522 lung = system: NCI-H522 lung
A549 NSCLC = system: A549 NSCLC
SW-620 colon = system: SW-620 colon
SF-539 CNS = system: SF-539 CNS
MOLT-4 leukemia = system: MOLT-4 leukemia
BT-549 breast = system: BT-549 breast
ACHN renal = system: ACHN renal
RPMI-8226 leukemia = system: RPMI-8226 leukemia
T-47D breast = system: T-47D breast
HOP-62 NSCLC = system: HOP-62 NSCLC
M14 melanoma = system: M14 melanoma
MALME-3M melanoma = system: MALME-3M melanoma
HCT-116 colon = system: HCT-116 colon
SF-268 CNS = system: SF-268 CNS
SK-MEL-2 melanoma = system: SK-MEL-2 melanoma
SK-MEL-28 melanoma = system: SK-MEL-28 melanoma
NCI-H460 lung = system: NCI-H460 lung
NCI/ADR-RES ovarian = system: NCI/ADR-RES ovarian
786-0 renal = system: 786-0 renal
OVCAR-3 ovarian = system: OVCAR-3 ovarian
SNB-19 CNS = system: SNB-19 CNS
MDA-MB-435 = system: MDA-MB-435
HS 578T breast = system: HS 578T breast
LOX IMVI melanoma = system: LOX IMVI melanoma
RXF 393 renal = system: RXF 393 renal
UO-31 renal = system: UO-31 renal
OVCAR-5 ovarian = system: OVCAR-5 ovarian
UACC-257 melanoma = system: UACC-257 melanoma
SK-OV-3 ovarian = system: SK-OV-3 ovarian
MDA-MB-231 breast = system: MDA-MB-231 breast
SNB-75 CNS = system: SNB-75 CNS
HCC-2998 colon = system: HCC-2998 colon
K-562 leukemia = system: K-562 leukemia
SR leukemia = system: SR leukemia
HCT-15 colon = system: HCT-15 colon
OVCAR-4 ovarian = system: OVCAR-4 ovarian
CAKI-1 renal = system: CAKI-1 renal
TK-10 renal = system: TK-10 renal
KM12 colon = system: KM12 colon
EKVX NSCLC = system: EKVX NSCLC
COLO 205 colon = system: COLO 205 colon
HOP-92 NSCLC = system: HOP-92 NSCLC
UACC-62 melanoma = system: UACC-62 melanoma
NCI-H226 lung = system: NCI-H226 lung
MCF7 breast = system: MCF7 breast
OVCAR-8 ovarian = system: OVCAR-8 ovarian
HT29 colon = system: HT29 colon
NCI-H23 lung = system: NCI-H23 lung
IGROV1 ovarian = system: IGROV1 ovarian
CCRF-CEM leukemia = system: CCRF-CEM leukemia
HL-60(TB) leukemia = system: HL-60(TB) leukemia
SF-295 CNS = system: SF-295 CNS

Q: With `CCCCCCCCCCCCCC(=O)C(C)N` (centres undefined) as the molecule, how does the GI50 (SN12C renal) read?
A: 3.71 µM

Q: And the TGI (SN12C renal)?
A: 13.3 µM

Q: And the GI50 (DU-145 prostate)?
A: 2.59 µM

Q: What about the TGI (DU-145 prostate) of the same molecule?
A: 7.35 µM

Q: And the GI50 (SK-MEL-5 melanoma)?
A: 17.9 µM

Q: What about the TGI (SK-MEL-5 melanoma) of the same molecule?
A: 32.2 µM

Q: What about the GI50 (PC-3 prostate) of the same molecule?
A: 2.64 µM

Q: What about the TGI (PC-3 prostate) of the same molecule?
A: 6.05 µM

Q: What about the GI50 (U251 CNS) of the same molecule?
A: 8.29 µM

Q: And the TGI (U251 CNS)?
A: 21.7 µM

Q: What about the GI50 (NCI-H522 lung) of the same molecule?
A: 12.7 µM

Q: What about the TGI (NCI-H522 lung) of the same molecule?
A: 27.5 µM

Q: And the GI50 (A549 NSCLC)?
A: 8.94 µM

Q: What about the TGI (A549 NSCLC) of the same molecule?
A: 22.5 µM

Q: And the GI50 (SW-620 colon)?
A: 11.6 µM

Q: What about the TGI (SW-620 colon) of the same molecule?
A: 27.2 µM

Q: What about the GI50 (SF-539 CNS) of the same molecule?
A: 6.63 µM

Q: What about the TGI (SF-539 CNS) of the same molecule?
A: 21.6 µM

Q: What about the GI50 (MOLT-4 leukemia) of the same molecule?
A: 7.06 µM

Q: What about the TGI (MOLT-4 leukemia) of the same molecule?
A: 23.5 µM

Q: What about the GI50 (BT-549 breast) of the same molecule?
A: 15.4 µM

Q: And the TGI (BT-549 breast)?
A: 31.1 µM

Q: And the GI50 (ACHN renal)?
A: 6.74 µM

Q: And the TGI (ACHN renal)?
A: 20.7 µM

Q: And the GI50 (RPMI-8226 leukemia)?
A: 6.26 µM

Q: And the TGI (RPMI-8226 leukemia)?
A: 23.7 µM

Q: What about the GI50 (T-47D breast) of the same molecule?
A: 2.17 µM

Q: And the TGI (T-47D breast)?
A: 5.5 µM

Q: And the GI50 (HOP-62 NSCLC)?
A: 4.76 µM

Q: And the TGI (HOP-62 NSCLC)?
A: 16.9 µM

Q: What about the GI50 (M14 melanoma) of the same molecule?
A: 8.66 µM

Q: What about the TGI (M14 melanoma) of the same molecule?
A: 22.1 µM

Q: And the GI50 (MALME-3M melanoma)?
A: 14 µM

Q: What about the TGI (MALME-3M melanoma) of the same molecule?
A: 29.3 µM

Q: What about the GI50 (HCT-116 colon) of the same molecule?
A: 5.27 µM

Q: And the TGI (HCT-116 colon)?
A: 18.7 µM

Q: And the GI50 (SF-268 CNS)?
A: 3.96 µM

Q: And the TGI (SF-268 CNS)?
A: 16 µM

Q: What about the GI50 (SK-MEL-2 melanoma) of the same molecule?
A: 16 µM

Q: And the TGI (SK-MEL-2 melanoma)?
A: 31.2 µM

Q: What about the GI50 (SK-MEL-28 melanoma) of the same molecule?
A: 16.8 µM

Q: And the TGI (SK-MEL-28 melanoma)?
A: 32.5 µM

Q: And the GI50 (NCI-H460 lung)?
A: 4.16 µM

Q: What about the TGI (NCI-H460 lung) of the same molecule?
A: 15.3 µM

Q: What about the GI50 (NCI/ADR-RES ovarian) of the same molecule?
A: 13.7 µM

Q: What about the TGI (NCI/ADR-RES ovarian) of the same molecule?
A: 29.4 µM

Q: What about the GI50 (786-0 renal) of the same molecule?
A: 12.4 µM

Q: What about the TGI (786-0 renal) of the same molecule?
A: 26.2 µM

Q: What about the GI50 (OVCAR-3 ovarian) of the same molecule?
A: 14.1 µM

Q: What about the TGI (OVCAR-3 ovarian) of the same molecule?
A: 28.3 µM

Q: What about the GI50 (SNB-19 CNS) of the same molecule?
A: 13.5 µM

Q: And the TGI (SNB-19 CNS)?
A: 30.7 µM

Q: And the GI50 (MDA-MB-435)?
A: 13.8 µM

Q: What about the TGI (MDA-MB-435) of the same molecule?
A: 28 µM

Q: And the GI50 (HS 578T breast)?
A: 9.16 µM

Q: And the TGI (HS 578T breast)?
A: 29.1 µM

Q: What about the GI50 (LOX IMVI melanoma) of the same molecule?
A: 1.88 µM

Q: What about the TGI (LOX IMVI melanoma) of the same molecule?
A: 3.66 µM

Q: What about the GI50 (RXF 393 renal) of the same molecule?
A: 4.46 µM

Q: What about the TGI (RXF 393 renal) of the same molecule?
A: 17 µM

Q: And the GI50 (UO-31 renal)?
A: 10.5 µM

Q: And the TGI (UO-31 renal)?
A: 24.2 µM

Q: And the GI50 (OVCAR-5 ovarian)?
A: 10.6 µM

Q: And the TGI (OVCAR-5 ovarian)?
A: 23.8 µM

Q: What about the GI50 (UACC-257 melanoma) of the same molecule?
A: 18.6 µM

Q: What about the TGI (UACC-257 melanoma) of the same molecule?
A: 34.1 µM

Q: What about the GI50 (SK-OV-3 ovarian) of the same molecule?
A: 9.36 µM

Q: And the TGI (SK-OV-3 ovarian)?
A: 22 µM

Q: And the GI50 (MDA-MB-231 breast)?
A: 2.37 µM

Q: What about the TGI (MDA-MB-231 breast) of the same molecule?
A: 6.06 µM

Q: What about the GI50 (SNB-75 CNS) of the same molecule?
A: 6.56 µM

Q: What about the TGI (SNB-75 CNS) of the same molecule?
A: 20.7 µM

Q: And the GI50 (HCC-2998 colon)?
A: 2.87 µM

Q: What about the TGI (HCC-2998 colon) of the same molecule?
A: 8.2 µM

Q: And the GI50 (K-562 leukemia)?
A: 2.41 µM

Q: And the TGI (K-562 leukemia)?
A: 11.1 µM

Q: What about the GI50 (SR leukemia) of the same molecule?
A: 2.68 µM

Q: What about the TGI (SR leukemia) of the same molecule?
A: 8.47 µM

Q: What about the GI50 (HCT-15 colon) of the same molecule?
A: 0.917 µM

Q: What about the TGI (HCT-15 colon) of the same molecule?
A: 4 µM

Q: And the GI50 (OVCAR-4 ovarian)?
A: 3.9 µM

Q: And the TGI (OVCAR-4 ovarian)?
A: 16.1 µM

Q: What about the GI50 (CAKI-1 renal) of the same molecule?
A: 10 µM

Q: What about the TGI (CAKI-1 renal) of the same molecule?
A: 22.6 µM

Q: And the GI50 (TK-10 renal)?
A: 3.81 µM

Q: And the TGI (TK-10 renal)?
A: 13.2 µM

Q: And the GI50 (KM12 colon)?
A: 3.71 µM

Q: What about the TGI (KM12 colon) of the same molecule?
A: 15.5 µM

Q: What about the GI50 (EKVX NSCLC) of the same molecule?
A: 2.13 µM

Q: And the TGI (EKVX NSCLC)?
A: 4.75 µM

Q: What about the GI50 (COLO 205 colon) of the same molecule?
A: 1.95 µM

Q: And the TGI (COLO 205 colon)?
A: 3.87 µM

Q: What about the GI50 (HOP-92 NSCLC) of the same molecule?
A: 5.71 µM

Q: What about the TGI (HOP-92 NSCLC) of the same molecule?
A: 19.2 µM

Q: And the GI50 (UACC-62 melanoma)?
A: 3.25 µM

Q: What about the TGI (UACC-62 melanoma) of the same molecule?
A: 10.4 µM

Q: What about the GI50 (NCI-H226 lung) of the same molecule?
A: 21.8 µM

Q: And the TGI (NCI-H226 lung)?
A: 44.3 µM

Q: And the GI50 (MCF7 breast)?
A: 2.13 µM

Q: And the TGI (MCF7 breast)?
A: 5.77 µM

Q: And the GI50 (OVCAR-8 ovarian)?
A: 18.4 µM

Q: And the TGI (OVCAR-8 ovarian)?
A: 36.1 µM

Q: What about the GI50 (HT29 colon) of the same molecule?
A: 3.89 µM

Q: And the TGI (HT29 colon)?
A: 13.7 µM

Q: What about the GI50 (NCI-H23 lung) of the same molecule?
A: 6.94 µM

Q: And the TGI (NCI-H23 lung)?
A: 21.9 µM

Q: What about the GI50 (IGROV1 ovarian) of the same molecule?
A: 3.68 µM

Q: What about the TGI (IGROV1 ovarian) of the same molecule?
A: 14 µM

Q: What about the GI50 (CCRF-CEM leukemia) of the same molecule?
A: 8.35 µM

Q: What about the TGI (CCRF-CEM leukemia) of the same molecule?
A: 27.2 µM

Q: And the GI50 (HL-60(TB) leukemia)?
A: 2.65 µM

Q: What about the TGI (HL-60(TB) leukemia) of the same molecule?
A: 10.4 µM

Q: What about the GI50 (SF-295 CNS) of the same molecule?
A: 2.88 µM

Q: And the TGI (SF-295 CNS)?
A: 10 µM

Reference: PubChem BioAssay (NCI)
